{"source": "PubChem BioAssay AID270", "about": "(DTP/NCI, 2004)", "test_system": "BDF1 mice, s.c. Lewis lung carcinoma, T/C %", "test": "NCI In Vivo Anticancer Drug Screen. Data for tumor model Lewis Lung Carcinoma (subcutaneous) in B6D2F1 (BDF1) mice", "conditions": "higher = longer survival", "method": "The antitumor activity of compounds was measured in mice bearing transplantable tumors. Survival or tumor size were measured and the results are expressed as the measurement made in the treated group (T) divided by the measurement made in the vehicle treated control group (C). The tumor model used in this assay is Lewis Lung Carcinoma (subcutaneous) in B6D2F1 (BDF1) mice", "note": "Where “and” joins values, the source holds several entries; their conditions need not be identical. Equal values may be shown once. Inconclusive results are not listed.", "data": [{"smiles": "CC1CCC(NC(=O)N(CCCl)N=O)CC1", "note": "(stereo not drawn)", "values": [{"measurement": "T/C", "setting": "endpoint: mean survival time, dose: 8.0 mg/kg/injection, schedule: Q08DX002 (ip), vehicle: saline + alcohol", "value": "97 % of control"}, {"measurement": "T/C", "setting": "endpoint: mean survival time, dose: 16.0 mg/kg/injection, schedule: Q08DX002 (ip), vehicle: saline + alcohol", "value": "105 % of control"}, {"measurement": "T/C", "setting": "endpoint: mean survival time, dose: 24.0 mg/kg/injection, schedule: Q08DX002 (ip), vehicle: saline + alcohol", "value": "123 % of control"}, {"measurement": "T/C", "setting": "endpoint: median survival time, dose: 0.5 mg/kg/injection, schedule: Q01DX001 (ip), vehicle: Klucel (hydroxypropylcellulose) (HPC)", "value": "107 % of control"}, {"measurement": "T/C", "setting": "endpoint: median survival time, dose: 1.0 mg/kg/injection, schedule: Q01DX001 (ip), vehicle: Klucel (hydroxypropylcellulose) (HPC)", "value": "86 % of control"}, {"measurement": "T/C", "setting": "endpoint: median survival time, dose: 1.0 mg/kg/injection, schedule: Q01DX005 (ip), vehicle: saline + alcohol", "value": "90 % of control and 107 % of control"}, {"measurement": "T/C", "setting": "endpoint: median survival time, dose: 1.0 mg/kg/injection, schedule: Q02DX009 (ip), vehicle: saline + alcohol", "value": "106 % of control and 124 % of control"}, {"measurement": "T/C", "setting": "endpoint: median survival time, dose: 2.0 mg/kg/injection, schedule: Q01DX005 (ip), vehicle: saline + alcohol", "value": "113 % of control and 114 % of control"}, {"measurement": "T/C", "setting": "endpoint: median survival time, dose: 2.0 mg/kg/injection, schedule: Q01DX009 (ip), vehicle: Klucel (hydroxypropylcellulose) (HPC)", "value": "90 % of control and 105 % of control and 120 % of control"}, {"measurement": "T/C", "setting": "endpoint: median survival time, dose: 2.0 mg/kg/injection, schedule: Q01DX009 (ip), vehicle: saline with Tween-80", "value": "91 % of control and 114 % of control"}, {"measurement": "T/C", "setting": "endpoint: median survival time, dose: 2.0 mg/kg/injection, schedule: Q02DX009 (ip), vehicle: saline + alcohol", "value": "115 % of control"}, {"measurement": "T/C", "setting": "endpoint: median survival time, dose: 4.0 mg/kg/injection, schedule: Q01DX001 (ip), vehicle: Klucel (hydroxypropylcellulose) (HPC)", "value": "86 % of control"}, {"measurement": "T/C", "setting": "endpoint: median survival time, dose: 4.0 mg/kg/injection, schedule: Q01DX005 (ip), vehicle: saline + alcohol", "value": "93 % of control and 105 % of control"}, {"measurement": "T/C", "setting": "endpoint: median survival time, dose: 4.0 mg/kg/injection, schedule: Q01DX009 (ip), vehicle: Klucel (hydroxypropylcellulose) (HPC)", "value": "92 % of control and 97 % of control"}, {"measurement": "T/C", "setting": "endpoint: median survival time, dose: 4.0 mg/kg/injection, schedule: Q01DX009 (ip), vehicle: saline with Tween-80", "value": "98 % of control"}, {"measurement": "T/C", "setting": "endpoint: median survival time, dose: 4.0 mg/kg/injection, schedule: Q02DX009 (ip), vehicle: saline + alcohol", "value": "90 % of control and 115 % of control"}, {"measurement": "T/C", "setting": "endpoint: median survival time, dose: 6.7 mg/kg/injection, schedule: Q01DX005 (ip), vehicle: saline with Tween-80", "value": "105 % of control and 113 % of control"}, {"measurement": "T/C", "setting": "endpoint: median survival time, dose: 7.0 mg/kg/injection, schedule: Q01DX001 (ip), vehicle: saline with Tween-80", "value": "104 % of control and 121 % of control"}, {"measurement": "T/C", "setting": "endpoint: median survival time, dose: 7.5 mg/kg/injection, schedule: Q01DX001 (ip), vehicle: Klucel (hydroxypropylcellulose) (HPC)", "value": "86 % of control"}, {"measurement": "T/C", "setting": "endpoint: median survival time, dose: 7.5 mg/kg/injection, schedule: Q01DX001 (ip), vehicle: saline with Tween-80", "value": "112 % of control"}, {"measurement": "T/C", "setting": "endpoint: median survival time, dose: 8.0 mg/kg/injection, schedule: Q01DX001 (ip), vehicle: Klucel (hydroxypropylcellulose) (HPC)", "value": "96 % of control"}, {"measurement": "T/C", "setting": "endpoint: median survival time, dose: 8.0 mg/kg/injection, schedule: Q01DX001 (ip), vehicle: saline + alcohol", "value": "100 % of control and 107 % of control"}, {"measurement": "T/C", "setting": "endpoint: median survival time, dose: 8.0 mg/kg/injection, schedule: Q01DX005 (ip), vehicle: saline + alcohol", "value": "118 % of control and 120 % of control"}, {"measurement": "T/C", "setting": "endpoint: median survival time, dose: 8.0 mg/kg/injection, schedule: Q02DX009 (ip), vehicle: saline + alcohol", "value": "118 % of control"}, {"measurement": "T/C", "setting": "endpoint: median survival time, dose: 8.0 mg/kg/injection, schedule: Q08DX002 (ip), vehicle: saline + alcohol", "value": "95 % of control"}, {"measurement": "T/C", "setting": "endpoint: median survival time, dose: 9.0 mg/kg/injection, schedule: Q01DX001 (ip), vehicle: Klucel (hydroxypropylcellulose) (HPC)", "value": "94 % of control"}, {"measurement": "T/C", "setting": "endpoint: median survival time, dose: 10.0 mg/kg/injection, schedule: Q01DX001 (ip), vehicle: Klucel (hydroxypropylcellulose) (HPC)", "value": "85 % of control and 95 % of control"}, {"measurement": "T/C", "setting": "endpoint: median survival time, dose: 10.0 mg/kg/injection, schedule: Q01DX005 (ip), vehicle: saline with Tween-80", "value": "157 % of control"}, {"measurement": "T/C", "setting": "endpoint: median survival time, dose: 10.7 mg/kg/injection, schedule: Q01DX001 (ip), vehicle: saline with Tween-80", "value": "111 % of control"}, {"measurement": "T/C", "setting": "endpoint: median survival time, dose: 11.0 mg/kg/injection, schedule: Q01DX001 (ip), vehicle: saline with Tween-80", "value": "94 % of control and 113 % of control"}, {"measurement": "T/C", "setting": "endpoint: median survival time, dose: 12.0 mg/kg/injection, schedule: Q01DX001 (ip), vehicle: gum acacia", "value": "158 % of control"}, {"measurement": "T/C", "setting": "endpoint: median survival time, dose: 13.0 mg/kg/injection, schedule: Q04DX004 (ip), vehicle: saline with Tween-80", "value": "115 % of control"}, {"measurement": "T/C", "setting": "endpoint: median survival time, dose: 15.0 mg/kg/injection, schedule: Q01DX001 (ip), vehicle: Klucel (hydroxypropylcellulose) (HPC)", "value": "112 % of control"}, {"measurement": "T/C", "setting": "endpoint: median survival time, dose: 16.0 mg/kg/injection, schedule: Q01DX001 (ip), vehicle: gum acacia", "value": "112 % of control"}, {"measurement": "T/C", "setting": "endpoint: median survival time, dose: 16.0 mg/kg/injection, schedule: Q01DX001 (ip), vehicle: saline + alcohol", "value": "109 % of control"}, {"measurement": "T/C", "setting": "endpoint: median survival time, dose: 16.0 mg/kg/injection, schedule: Q01DX001 (ip), vehicle: saline with Tween-80", "value": "95 % of control and 118 % of control"}, {"measurement": "T/C", "setting": "endpoint: median survival time, dose: 16.0 mg/kg/injection, schedule: Q05DX002 (ip), vehicle: gum acacia", "value": "156 % of control"}, {"measurement": "T/C", "setting": "endpoint: median survival time, dose: 16.0 mg/kg/injection, schedule: Q06DX002 (ip), vehicle: gum acacia", "value": "121 % of control"}]}]}
